Experimental data published in US20160312315A1, “Methods and Compositions for Determining Virus Susceptibility to Integrase Inhibitors” (Laboratory Corporation of America Holdings, priority 2011, published 2016).

What was measured:
Assay type in all cases: cell-based, HIV-1
[1] = test system: Y143R plus T97A site directed mutant virus; assay: PhenoSense raltegravir susceptibility assay, site directed mutant viruses; details: SDM virus vs NL4-3
Description: (§1) Raltegravir susceptibility tests performed with resistance test vectors were carried out using packaging host and target host cells consisting of the human embryonic kidney cell line 293. Susceptibility tests were carried out with the RTV libraries by using viral particles comprising the RTV libraries to infect a host cell in which the expression of the indicator gene is measured. The amount of indicator gene (luciferase) activity detected in infected cells is used as a direct measure of “infectivity,” i.e., the ability of the virus to complete a single round of replication. Thus, drug susceptibility can be determined by plotting the amount of luciferase activity produced by patient derived viruses in the presence of varying concentrations of the antiviral drug. By identifying the concentration of drug at which luciferase activity is half-maximum, the IC50 of the virus from which patient-derived segment(s) were obtained for the antiretroviral agent can be determined. The IC50 provides a direct measure of the susceptibility of the HIV infecting the patient to raltegravir.
(§2) In the susceptibility tests, packaging host (293) cells were seeded in 10-cm-diameter dishes and were transfected one day after plating with test vector plasmid DNA and the envelope expression vector. Transfections were performed using a calcium-phosphate co-precipitation procedure. The cell culture media containing the DNA precipitate was replaced with fresh medium, from one to 24 hours, after transfection. […] Alternatively, cells were lysed, and luciferase was measured by adding Steady-Glo (Promega Corp.; Madison, Wis.) reagent directly to each well without aspirating the culture media from the well. […]
(§3) Site directed mutant (SDM) viruses were created that had only the specific integrase mutation listed on the x-axis of FIG. 8A, 8B, or 8C. FIGS. 8A, 8B, and 8C are graphs showing the fold change (FC) in raltegravir susceptibility of the SDM viruses, as compared to the raltegravir susceptibility of an NL4-3 virus and determined by the PhenoSense assay. […]

[2] = test system: Y143R site directed mutant virus; assay: as above; details: Y143R mutation alone, SDM virus vs NL4-3
Description: as §1, §2, §3

[3] = test system: other Y143X (Y143H/C/S/G) site directed mutant viruses; assay: as above; details: other Y143X substitutions alone, SDM viruses vs NL4-3
Description: as §1, §2, §3

[4] = test system: other Y143X plus T97A site directed mutant viruses
Description: (§4) Raltegravir susceptibility tests performed with resistance test vectors were carried out using packaging host and target host cells consisting of the human embryonic kidney cell line 293. Susceptibility tests were carried out with the RTV libraries by using viral particles comprising the RTV libraries to infect a host cell in which the expression of the indicator gene is measured. The amount of indicator gene (luciferase) activity detected in infected cells is used as a direct measure of “infectivity,” i.e., the ability of the virus to complete a single round of replication. Thus, drug susceptibility can be determined by plotting the amount of luciferase activity produced by patient derived viruses in the presence of varying concentrations of the antiviral drug. By identifying the concentration of drug at which luciferase activity is half-maximum, the IC50 of the virus from which patient-derived segment(s) were obtained for the antiretroviral agent can be determined. […]
(§5) In the susceptibility tests, packaging host (293) cells were seeded in 10-cm-diameter dishes and were transfected one day after plating with test vector plasmid DNA and the envelope expression vector. […] Alternatively, cells were lysed, and luciferase was measured by adding Steady-Glo (Promega Corp.; Madison, Wis.) reagent directly to each well without aspirating the culture media from the well. […]

[5] = test system: Y143C/G/S plus S230R site directed mutant viruses; assay: PhenoSense raltegravir susceptibility assay, site directed mutant viruses; details: SDM viruses vs NL4-3
Description: as §4, §5

[6] = test system: Y143R plus S230R site directed mutant virus; assay: as above; details: SDM virus, compared with Y143R alone
Description: as §4, §5

Cc1nnc(C(=O)NC(C)(C)c2nc(C(=O)NCc3ccc(F)cc3)c(O)c(=O)n2C)o1 [raltegravir]
fold change in IC50 (FC), reduction in RAL susceptibility [1]: 70
fold change in IC50 (FC), reduction in RAL susceptibility [2]: 20
fold change in IC50 (FC), reduction in RAL susceptibility [3]: 3-6
fold change in IC50 (FC), reduction in RAL susceptibility [4]: 7-16
fold change in IC50 (FC), reduction in RAL susceptibility [5]: 15-24
further reduction in RAL susceptibility on addition of S230R [6]: did not
